{"source": "patent US20230279482A1", "about": "“COMPOSITIONS, METHODS AND USES FOR QUANTIFYING TRANSCRIPTION AND BIOSENSING OF SMALL MOLECULES USING A NOVEL TYPE VI CRISPR-CAS ASSAY” (THE REGENTS OF THE UNIVERSITY OF COLORADO, A BODY CORPORATE, priority 2020, published 2023)", "molecular_target": "E. coli RNAP (Escherichia coli, UniProt P0A8T7+P0A8V2)", "sequence (P0A8V2 whole entry)": "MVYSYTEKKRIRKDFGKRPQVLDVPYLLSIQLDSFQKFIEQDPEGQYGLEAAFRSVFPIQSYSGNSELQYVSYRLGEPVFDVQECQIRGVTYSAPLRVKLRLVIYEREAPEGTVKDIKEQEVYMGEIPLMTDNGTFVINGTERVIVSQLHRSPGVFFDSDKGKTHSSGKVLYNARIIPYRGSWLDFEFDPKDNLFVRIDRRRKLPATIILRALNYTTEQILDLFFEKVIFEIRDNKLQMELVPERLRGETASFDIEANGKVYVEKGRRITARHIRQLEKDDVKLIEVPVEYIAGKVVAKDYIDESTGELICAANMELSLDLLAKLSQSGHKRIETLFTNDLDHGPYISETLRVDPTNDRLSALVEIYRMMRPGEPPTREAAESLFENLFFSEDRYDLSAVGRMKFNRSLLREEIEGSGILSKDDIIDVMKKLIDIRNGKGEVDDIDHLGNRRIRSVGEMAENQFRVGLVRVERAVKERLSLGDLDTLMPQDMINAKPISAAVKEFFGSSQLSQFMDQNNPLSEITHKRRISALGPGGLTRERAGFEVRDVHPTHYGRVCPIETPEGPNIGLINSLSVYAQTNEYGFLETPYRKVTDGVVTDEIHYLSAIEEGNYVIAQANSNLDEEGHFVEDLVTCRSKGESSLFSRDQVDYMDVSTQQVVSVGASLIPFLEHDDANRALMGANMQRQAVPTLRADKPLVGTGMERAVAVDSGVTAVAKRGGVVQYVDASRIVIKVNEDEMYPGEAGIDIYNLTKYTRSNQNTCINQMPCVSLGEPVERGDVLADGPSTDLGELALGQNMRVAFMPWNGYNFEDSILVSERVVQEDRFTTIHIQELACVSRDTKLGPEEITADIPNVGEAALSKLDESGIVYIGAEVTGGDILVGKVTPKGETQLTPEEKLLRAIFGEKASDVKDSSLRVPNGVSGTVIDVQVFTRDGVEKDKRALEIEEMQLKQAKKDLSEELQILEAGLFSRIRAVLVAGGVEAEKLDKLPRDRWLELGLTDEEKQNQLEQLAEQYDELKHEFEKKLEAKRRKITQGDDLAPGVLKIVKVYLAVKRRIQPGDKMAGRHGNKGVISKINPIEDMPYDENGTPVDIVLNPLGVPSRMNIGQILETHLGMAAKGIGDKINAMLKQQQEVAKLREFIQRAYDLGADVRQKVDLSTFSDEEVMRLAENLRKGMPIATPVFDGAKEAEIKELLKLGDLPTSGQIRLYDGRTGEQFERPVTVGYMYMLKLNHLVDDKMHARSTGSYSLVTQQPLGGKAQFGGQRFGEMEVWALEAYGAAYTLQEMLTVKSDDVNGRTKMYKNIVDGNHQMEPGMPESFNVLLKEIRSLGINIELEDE", "sequence (P0A7Z4 whole entry, further chain)": "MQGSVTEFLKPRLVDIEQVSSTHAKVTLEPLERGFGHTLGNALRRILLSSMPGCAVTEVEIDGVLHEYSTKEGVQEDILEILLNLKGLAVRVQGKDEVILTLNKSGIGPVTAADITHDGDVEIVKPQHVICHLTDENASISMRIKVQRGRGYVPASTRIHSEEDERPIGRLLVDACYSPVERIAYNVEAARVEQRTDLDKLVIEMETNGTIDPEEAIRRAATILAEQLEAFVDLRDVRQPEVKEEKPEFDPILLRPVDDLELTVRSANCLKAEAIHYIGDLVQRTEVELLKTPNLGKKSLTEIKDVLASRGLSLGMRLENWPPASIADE", "sequence (P0A800 whole entry, further chain)": "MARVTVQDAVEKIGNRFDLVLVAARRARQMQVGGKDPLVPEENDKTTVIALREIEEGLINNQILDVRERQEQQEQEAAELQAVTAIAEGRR", "sequence (P0A8T7 whole entry)": "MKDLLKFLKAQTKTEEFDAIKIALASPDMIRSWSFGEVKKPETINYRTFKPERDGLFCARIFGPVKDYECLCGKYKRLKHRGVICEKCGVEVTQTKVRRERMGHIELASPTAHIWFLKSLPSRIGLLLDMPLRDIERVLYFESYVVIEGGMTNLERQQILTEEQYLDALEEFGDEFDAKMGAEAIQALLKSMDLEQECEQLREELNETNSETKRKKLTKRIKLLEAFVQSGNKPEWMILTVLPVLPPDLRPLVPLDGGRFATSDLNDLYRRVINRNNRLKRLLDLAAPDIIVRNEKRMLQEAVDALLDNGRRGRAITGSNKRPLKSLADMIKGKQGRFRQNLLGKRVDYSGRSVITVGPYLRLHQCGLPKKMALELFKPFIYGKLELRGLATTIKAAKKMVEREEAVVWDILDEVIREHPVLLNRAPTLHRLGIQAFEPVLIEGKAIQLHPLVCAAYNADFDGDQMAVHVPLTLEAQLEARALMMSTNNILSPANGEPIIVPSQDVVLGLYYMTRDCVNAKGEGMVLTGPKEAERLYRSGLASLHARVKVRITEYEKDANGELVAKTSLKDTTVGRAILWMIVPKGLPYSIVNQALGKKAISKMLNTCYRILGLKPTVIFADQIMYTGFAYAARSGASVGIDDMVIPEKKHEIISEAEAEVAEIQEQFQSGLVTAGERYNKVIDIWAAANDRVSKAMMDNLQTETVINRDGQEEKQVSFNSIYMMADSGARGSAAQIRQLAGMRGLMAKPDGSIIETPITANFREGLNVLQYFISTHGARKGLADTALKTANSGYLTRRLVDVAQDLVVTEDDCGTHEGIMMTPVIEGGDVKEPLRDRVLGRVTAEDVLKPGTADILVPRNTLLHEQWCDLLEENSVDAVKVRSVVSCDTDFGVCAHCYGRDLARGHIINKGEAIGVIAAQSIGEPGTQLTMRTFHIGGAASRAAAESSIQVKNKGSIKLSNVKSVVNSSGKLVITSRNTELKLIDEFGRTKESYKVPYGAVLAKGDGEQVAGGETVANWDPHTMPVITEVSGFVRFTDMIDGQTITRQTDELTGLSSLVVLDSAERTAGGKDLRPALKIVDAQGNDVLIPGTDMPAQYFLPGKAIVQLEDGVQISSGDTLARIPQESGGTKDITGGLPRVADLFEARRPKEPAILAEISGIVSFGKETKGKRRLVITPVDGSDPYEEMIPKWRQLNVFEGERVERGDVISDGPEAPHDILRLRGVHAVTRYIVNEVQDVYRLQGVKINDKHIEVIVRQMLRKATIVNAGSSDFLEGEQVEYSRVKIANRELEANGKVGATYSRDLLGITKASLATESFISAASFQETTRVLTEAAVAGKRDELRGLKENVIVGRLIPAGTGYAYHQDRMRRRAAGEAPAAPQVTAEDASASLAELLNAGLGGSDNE", "test": "Two-batch protocol: transcription in presence of fluoride, wash, then Cas13a detection", "assay_type": "biochemical", "conditions": "fluoride riboswitch template, FIG. 6C", "method": "In another exemplary method, two-batch methods included, 30 μL in vitro transcription reactions carried out as described above but without addition of Cas13a, crRNA, labeled RNA oligos, RNase inhibitor. Then, the reaction was washed three times with 500 μL ddH2O using an centrifugal filter (0.5 ml, 10 kDa cutoff). After concentrating the solution to approximately 20 μL, aliquots of 6 μL were taken and added to a 24 μL of a SHERLOCK reaction (described below).\nThe B. cereus crcB fluoride riboswitch is a regulatory switch that turns on expression of the fluoride efflux pump crcB via selectively binding fluoride over chloride. […] This may be explained in part by an observed inhibition of the assay at fluoride concentrations above 100 μM. To understand whether this effect stems from inhibition of the E. coli RNAP or inhibition of Cas13a, SHERLOCK reactions without RNAP were conducted at varying concentrations of sodium fluoride (FIG. 6A). […] To measure the response of the RNAP to fluoride, an exemplary two-batch protocol was developed (FIG. 6B) to first transcribe RNA in presence of fluoride, then wash out the fluoride and add the washed transcripts to Cas13a. […] The two-batch assay could also be used to wash out Cas13a-inhibiting compounds after transcription that would otherwise interfere with the assay.", "data": [{"smiles": "[F-].[Na+]", "note": "[fluoride, sodium fluoride]", "values": [{"measurement": "concentration that drastically reduced transcriptional activity", "value": "≥ 125", "unit": "µM"}, {"measurement": "concentration up to which transcription is induced in a linear manner", "value": "≤ 100", "unit": "µM"}]}]}
